Read-outs that look alike come from different tables or passages of the source.
Target: T1, human Y4 receptor (Homo sapiens, UniProt P50391)
T1 construct: expressed in transfected cells
Test: NPY4 cAMP HTRF Agonist Assay (inhibitory cAMP assay, Gi activation by Y4 agonism)
Type: cell-based
Protocol: NPY4 cAMP HTRF Agonist Assay
The functionality of the compound at Y4 receptor was analyzed using a inhibitory cAMP assay (CISBIO, HTRF cAMP kit #62AM4PEC) to measure the Gi activation by Y4 agonism.
The human Y4 stable CHO clonal cells were maintained in culture medium (F-12 containing 10% Fetal Bovine Serum, […] GENETICIN®, […] Zeocin). Before the experiment, 5 μL of 1 uM Forskolin (Sigma, # F6886) and 100 uM IBMX (Sigma, # I5879) in PBS buffer were added into 384-well plates (PE, Proxi-plate) that were pre-dotted with 100 nL compounds. The cells were removed from the flasks by Cellstripper, counted and adjusted to 1.0×10^6 cells/mL in PBS buffer, and added 5 μL/well (5000 cells/well) into the above 384-well plates. The cells were then covered and incubated for 30 minutes at room temperature. After incubation, 5 μL/well of D2-conjugate in HTRF lysis buffer was first added, followed by adding 5 μL/well of anti-cAMP Cryptate in HTRF lysis buffer. The plates were incubated for another 1 hour at room temperature and read on the EnVision Multilabel Plate Reader.
Compounds described herein were tested in the above assay.

[1] = TABLE 2, R2 is Phenyl-CN, read-out: hY4 CAMP EC50
[2] = second TABLE 1, R2 is Phenyl-CF3, read-out: hY4 CAMP EC50
[3] = TABLE 3, R2 is Phenyl-NO2, read-out: hY4 CAMP EC50
[4] = human Y4 stable CHO clonal cells, forskolin + IBMX, read-out: NPY4 cAMP HTRF Agonist Assay EC50
[5] = TABLE 4, R2 is Pyridinyl-CN, read-out: hY4 CAMP EC50
[6] = human Y4 receptor, cAMP, read-out: hY4 CAMP EC50
[7] = TABLE 5, R2 is Pyridinyl-CF3, read-out: hY4 CAMP EC50

T1 sequence (P50391 whole entry): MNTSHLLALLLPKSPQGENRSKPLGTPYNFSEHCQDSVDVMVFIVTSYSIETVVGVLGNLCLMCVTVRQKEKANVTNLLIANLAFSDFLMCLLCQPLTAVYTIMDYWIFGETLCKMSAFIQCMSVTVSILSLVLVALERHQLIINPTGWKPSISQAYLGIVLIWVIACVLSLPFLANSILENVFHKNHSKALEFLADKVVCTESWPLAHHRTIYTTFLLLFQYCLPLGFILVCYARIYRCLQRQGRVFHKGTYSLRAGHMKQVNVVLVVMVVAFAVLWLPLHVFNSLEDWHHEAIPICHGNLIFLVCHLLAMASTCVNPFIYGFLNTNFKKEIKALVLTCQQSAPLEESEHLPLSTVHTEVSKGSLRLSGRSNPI

Compound `N#Cc1ccc(N2CCC[C@H](N[C@@H]3CCCC[C@H]3Nc3cc(-c4ccc5[nH]ncc5c4)ccn3)C2)cc1` [Example 210] has an EC50 [1] of 640 nM.
With `COc1cccc(-c2ccnc(N[C@@H]3CCCC[C@H]3N[C@H]3CCCN(c4ccc(C#N)cc4)C3)c2)c1` [Example 263] the EC50 [1] was 87 nM.
In the case of `OC1(c2cccc(-c3cnc(N[C@@H]4CCCC[C@H]4N[C@H]4CCCN(c5ccc(C(F)(F)F)cc5)C4)o3)c2)CC1` [Example 154], the EC50 [2] is reported as 36 nM.
`N#Cc1ccc(-c2cnc(N[C@@H]3CCCC[C@H]3N[C@H]3CCCN(c4ccc([N+](=O)[O-])cc4)C3)o2)cc1` [Example 285] showed an EC50 [3] of 26 nM.
For `C[C@H](O)c1cccc(-c2ccnc(N[C@@H]3CCCC[C@H]3N[C@H]3CCCN(c4ccc(C(F)(F)F)cc4)C3)c2)c1` [Example 167], the EC50 [2] was 6 nM.
`CCOC(=O)Nc1cccc(-c2cnc(N[C@@H]3CCCC[C@H]3N[C@H]3CCCN(c4ccc(C(F)(F)F)cc4)C3)o2)c1` [Example 101, Ethyl (3-(2-((1R,2R)-2(S)-1-(4-trifluoromethyl)phenylpiperidin-3-ylamino)cyclohexylamino)oxazol-5-yl)phenylcarbamate] gave an EC50 [4] of 2 nM.
`C[C@]1(N[C@@H]2CCCC[C@H]2Nc2ncc(-c3cccc(C(N)=O)c3)o2)CCCN(c2ccc(C#N)cn2)C1` [Example 298] showed an EC50 [5] of 23 nM.
For `O=C(NC1CC1)c1cccc(-c2cnc(N[C@@H]3CCCC[C@H]3N[C@H]3CCCN(c4ccc5ncnn5c4)C3)o2)c1` [Example 486], the EC50 [6] was 78 nM.
`CC(C)CNC(=O)c1cccc(-c2ccnc(N[C@@H]3CCCC[C@H]3N[C@H]3CCCN(c4ccc(C(F)(F)F)cc4)C3)c2)c1` [Example 148] gave an EC50 [2] of 205 nM.
`O=[N+]([O-])c1ccc(N2CCC[C@H](N[C@@H]3CCCC[C@H]3Nc3nccc(-c4ccc(OC(F)(F)F)cc4)n3)C2)cc1` [Example 28, (1R,2R)—N1-((S)-1-(4-Nitrophenyl)piperidin-3-yl)-N2-(4-(4-(trifluoromethoxy)phenyl)pyrimidin-2-yl)cyclohexane-1,2-diamine] gave an EC50 [4] of 217 nM.
Compound `N#Cc1ncc(N2C[C@@H]3C[C@H](N[C@@H]4CCCC[C@H]4Nc4ncc(-c5cccc(C(N)=O)c5)o4)[C@H]2C3)cn1` [Example 434] has an EC50 [6] of 129 nM.
`NC(=O)c1cccc(-c2cnc(N[C@@H]3CCCC[C@H]3N[C@H]3C[C@@H]4C[C@H]3N(c3ncc(C(F)(F)F)cn3)C4)o2)c1` [Example 422] gave an EC50 [6] of 41 nM.
`FC(F)(F)Oc1ccc(-c2cnc(N[C@@H]3CCCC[C@H]3N[C@H]3CCCN(c4ccnc(C(F)(F)F)c4)C3)o2)cc1` [Example 336] gave an EC50 [7] of 212 nM.
With `Cc1nc(-c2ccc(N3CCC[C@H](N[C@@H]4CCCC[C@H]4Nc4cc(-c5cccc(C(N)=O)c5)ccn4)C3)nc2)no1` [Example 393] the EC50 (TABLE 7, R2 is Pyridinyl-oxadiazole-CH3, read-out: hY4 CAMP EC50) was 1 nM.
For `O=[N+]([O-])c1ccc(N2C[C@@H]3C[C@H](N[C@@H]4CCCC[C@H]4Nc4cc(-c5ccc(OC(F)(F)F)cc5)ncn4)[C@H]2C3)cc1` [Example 296], the EC50 [3] was 68 nM.
Compound `FC(F)(F)Oc1cccc(-c2cnc(N[C@@H]3CCCC[C@H]3N[C@H]3CCCN(c4ccc(C(F)(F)F)cc4)C3)nc2)c1` [Example 177] has an EC50 [2] of 781 nM.
Work on `FC(F)(F)c1ncc(N2CCC[C@H](N[C@@H]3CCCC[C@H]3Nc3ncc(-c4ccccc4)o3)C2)cn1` [Example 406] yielded an EC50 [6] of 66 nM.
In the case of `N#Cc1ccc(N2CCC[C@H](N[C@@H]3CCCC[C@H]3Nc3nccc(-c4ccccc4)n3)C2)cc1` [Example 60, 4-((S)-3-((1R,2R)-2-(4-Phenylpyrimidin-2-ylamino)cyclohexylamino)piperidin-1-yl)benzonitrile bis-trifluoroacetate], the EC50 [4] is reported as 500 nM.
With `COc1ncccc1-c1ccnc(N[C@@H]2CCCC[C@H]2NC2CCCN(c3ccc(-c4nnc(C)o4)cc3)C2)c1` (stereo partly shown) [Example 372] the EC50 [6] was 59 nM.
Work on `N#Cc1ccc(N2CCCC(N[C@@H]3CCCC[C@H]3Nc3ncc(-c4ccc(OC(F)(F)F)cc4)o3)C2)nc1` (stereo partly shown) [Example 315] yielded an EC50 [5] of 15 nM.
`COC(=O)Nc1cccc(-c2cnc(N[C@@H]3CCCC[C@H]3N[C@H]3CCCN(c4cnc(C(F)(F)F)cn4)C3)o2)c1` [Example 427] gave an EC50 [6] of 1 nM.
`FC(F)(F)c1ccc(N2CCC[C@H](N[C@@H]3CCCC[C@H]3Nc3ncc(-c4ccccc4)cn3)C2)cc1` [Example 176] was tested, and the EC50 [2] was 579 nM.
`CCOC(=O)Nc1cccc(-c2cnc(N[C@@H]3CCCC[C@H]3N[C@H]3CCCN(c4cnc(C(F)(F)F)cn4)C3)o2)c1` [Example 98, Ethyl 3-(2-((1R,2R)-2-((S)-1-(5-(trifluoromethyl)pyrazin-2-yl)piperidin-3-ylamino)cyclohexylamino)oxazol-5-yl)phenylcarbamate] was tested, and the EC50 [4] was 0.7 nM.
`N#Cc1cnc(N2CCC[C@H](N[C@@H]3CCCC[C@H]3Nc3cc(-c4cccc(C(N)=O)c4)ccn3)C2)nc1` [Example 430] was tested, and the EC50 [6] was 142 nM.
`COC(=O)Nc1cccc(-c2ccnc(N[C@@H]3CCCC[C@H]3N[C@H]3CCCN(c4ccc(C#N)cc4)C3)c2)c1` [Example 200] was tested, and the EC50 [1] was 3 nM.
`FC(F)(F)c1ccc(N2CCC[C@H](N[C@@H]3CCCC[C@H]3Nc3cc(-c4cccc(N5CCCC5)c4)ccn3)C2)cc1` [Example 164] was tested, and the EC50 [2] was 104 nM.
In the case of `Ic1ccc(N2CCC[C@H](N[C@@H]3CCCC[C@H]3Nc3nccc(-c4ccccc4)n3)C2)cc1` [Example 92, (1R,2R)—N1-((S)-1-(4-Iodophenyl)piperidin-3-yl)-N2-(4-phenylpyrimidin-2-yl)cyclohexane-1,2-diamine bis-trifluoroacetate], the EC50 [4] is reported as 469 nM.
Work on `CS(=O)(=O)c1ccc(-c2ccnc(N[C@@H]3CCCC[C@H]3N[C@H]3CCCN(c4ccc(C#N)cc4)C3)c2)cc1` [Example 255] yielded an EC50 [1] of 922 nM.
`O=[N+]([O-])c1ccc(N2CCC[C@H](N[C@@H]3CCCC[C@H]3Nc3ncc(-c4ccc(O)cc4)o3)C2)cc1` [Example 12, 4-(2-((1R,2R)-2-((S)-1-(4-Nitrophenyl)piperidin-3-ylamino)cyclohexylamino)oxazol-5-yl)phenol] showed an EC50 [4] of 1 nM.
`N#Cc1ccc(N2CCC[C@H](N[C@@H]3CCCC[C@H]3Nc3cc(-c4cccc5[nH]ncc45)ccn3)C2)cc1` [Example 211] showed an EC50 [1] of 22 nM.
Work on `Cc1nnc(-c2ccc(N3CCC[C@H](N[C@@H]4CCCC[C@H]4Nc4ncc(-c5cccc(C(N)=O)c5)o4)C3)cc2)o1` [Example 346] yielded an EC50 [6] of 306 nM.
For `N#Cc1ccc(N2CCC[C@H](N[C@@H]3CCCC[C@H]3Nc3ncc4cc(F)ccc4n3)C2)cc1` [Example 283], the EC50 [1] was 308 nM.
`Cc1nnc(-c2ccc(N3CCCC(N[C@@H]4CCCC[C@H]4Nc4cc(-c5ccc(O)cc5)ccn4)C3)cc2)o1` (stereo partly shown) [Example 370] gave an EC50 [6] of 3 nM.
`N#Cc1ccc(N2CCC[C@H](N[C@@H]3CCCCC3Nc3ncc(-c4ccc(OC(F)(F)F)cc4)o3)C2)cn1` (stereo partly shown) [Example 309] was tested, and the EC50 [5] was 10 nM.
`N#Cc1ccc(N2C[C@@H]3C[C@H](N[C@@H]4CCCC[C@H]4Nc4cc(-c5ccc(OC(F)F)cc5)ccn4)[C@H]2C3)cc1` [Example 227] gave an EC50 [1] of 16 nM.
For `N#Cc1ccc(N2CCC[C@H](N[C@@H]3CCCC[C@H]3Nc3cc(-c4ccco4)ccn3)C2)cc1` [Example 247], the EC50 [1] was 15 nM.
Compound `N#Cc1ccc(N2CCC[C@H](N[C@@H]3CCCC[C@H]3Nc3cc(-n4cncn4)ccn3)C2)cc1` [Example 208] has an EC50 [1] of 231 nM.
In the case of `CC(=O)Nc1cccc(-c2ccnc(N[C@@H]3CCCC[C@H]3N[C@H]3CCCN(c4ccc(C#N)cc4)C3)c2)c1` [Example 251], the EC50 [1] is reported as 1 nM.
`Cc1nnc(-c2ccc(N3CCCC(N[C@@H]4CCCC[C@H]4Nc4cc(-c5ccc(F)cc5)ccn4)C3)cc2)o1` (stereo partly shown) [Example 364] was tested, and the EC50 [6] was 3 nM.
Compound `Cc1cc(OC(F)(F)F)ccc1-c1cnc(N[C@@H]2CCCC[C@H]2N[C@H]2CCCN(c3ccc([N+](=O)[O-])cc3)C2)o1` [Example 11, (1R,2R)—N1-(5-(2-Methyl-4-(trifluoromethoxy)phenyl)oxazol-2-yl)-N2-((S)-1-(4-nitrophenyl)piperidin-3-yl)cyclohexane-1,2-diamine] has an EC50 [4] of 49 nM.
`NC(=O)c1cccc(-c2ccnc(N[C@@H]3CCCC[C@H]3N[C@H]3C[C@@H]4C[C@H]3N(c3ccc(C(F)(F)F)nc3)C4)c2)c1` [Example 327] gave an EC50 [7] of 180 nM.
In the case of `O=C(Nc1cccc(-c2ccnc(N[C@@H]3CCCC[C@H]3N[C@H]3CCCN(c4ccc(C(F)(F)F)cc4)C3)c2)c1)OCCF` [Example 137], the EC50 [2] is reported as 2 nM.
`CCNC(=O)c1cccc(-c2ccnc(N[C@@H]3CCCC[C@H]3N[C@H]3CCCN(c4ccc(C(F)(F)F)cc4)C3)c2)c1` [Example 138] was tested, and the EC50 [2] was 9 nM.
For `N#Cc1ccc(N2CCCC(N[C@@H]3CCCC[C@H]3Nc3ncc(-c4cccc(C(N)=O)c4)o3)C2)nn1` (stereo partly shown) [Example 479], the EC50 [6] was 333 nM.
`CC(C)(C)NC(=O)c1cccc(-c2cnc(N[C@@H]3CCCC[C@H]3N[C@H]3CCCN(c4ccc(C(F)(F)F)cc4)C3)o2)c1` [Example 118] was tested, and the EC50 [2] was 38 nM.
With `O=[N+]([O-])c1cnc(N2CCC[C@H](N[C@@H]3CCCC[C@H]3Nc3ncc(-c4ccccc4)o3)C2)nc1` [Example 77, (1R,2R)—N1-((S)-1-(5-Nitropyrimidin-2-yl)piperidin-3-yl)-N2-(5-phenyloxazol-2-yl)cyclohexane-1,2-diamine bis-trifluoroacetate] the EC50 [4] was 34 nM.
